From patent publication US20240299504A1, “COMPOSITIONS AND METHODS FOR TREATING ALZHEIMERS DISEASE” (priority 2023, published 2024)

Assays:
[1] = system: IBA1 and GFAP; test: Western blot of IBA1 and GFAP in cortex and hippocampus homogenates; format: in vivo, mouse; settings: 5×FAD brain homogenates (cortex and hippocampus), 6-MO female
Protocol: (§1) Parathyroid hormone (human) was purchased from TOCRIS Bioscience (Cat #3011/1, Abingdon, United Kingdom). WT or 5×FAD mice (both male and female) were treated with PTH1-34 intermittently [once daily injection of hPTH1-34 (50 μg/Kg) or vehicle (0.9% sodium chloride) (as a control) by subcutaneous injection, starting at 2-MO, 5 days per week] as described previously. Mice were then subjected to behavioral tests and sacrificed for examinations of their bone and brain phenotypes at the indicated ages.
Total proteins from cortex, hippocampus, or cultured astrocytes were extracted using RIPA lysis buffer [50 mM Tris-HCl (pH7.5), 150 mM NaCl, 1 mM EDTA, 1% v/v NP-40, 0.1% SDS, 1% sodium deoxycholate supplemented with Protease Inhibitor Cocktail (Roche) and 1 mM PMSF] and analyzed by Western Blot. Lysates were cleared by centrifugation at 12,000 g for 15 min at 4° C. to remove debris and to obtain homogenates. Homogenates samples were resolved by SDS-PAGE (8˜15%) gels and then electroblotted onto nitrocellulose membranes (Cat #1620112, Bio-Rad Laboratories). […] After washing with TBST 3 times, antibody reactivity was detected by the Enhanced Chemiluminescence (ECL) detection system (Amersham Biosciences). Band density of proteins was normalized in relation to loading control and analyzed using NIH ImageJ software. […]

[2] = system: 5×FAD astrocytes; test: Senescence markers in cultured astrocytes (RT-PCR, SA-β-gal staining); format: cell-based, mouse; settings: cultured 5×FAD astrocytes, 100 ng/ml, 24 h
Protocol: Total RNA was extracted from cortex, hippocampus, or cultured astrocytes using a TRizol reagent (Invitrogen, cat #15596-026, Carlsbad, CA, USA) as previously described. Purified RNA (1-5 μg) was used for cDNA synthesis with the Revert Aid First Strand cDNA Synthesis Kit (Thermo Scientific, cat #K1621, Waltham, MA, USA). The cDNA products were subjected to subsequent quantitative PCR (qPCR) using the QuantiFast SYBR Green PCR Kit (QIA-GEN, cat #204057, Hilden, Germany) with a qPCR System (StepOne Plus). Each sample was repeated at least 3 times, and the mRNA level was normalized to GAPDH using the 2^−ΔΔCt method.
(§2) Astrocyte culture was performed according to the standard protocol with some modifications as described in previous literature. In brief, the cerebral cortex and hippocampus of postnatal day 3 (P3) female pups were dissected under a stereomicroscope and placed in ice-cold calcium- and magnesium-free HBSS (Hanks Balanced Salt Solution). The tissues were digested with 2.5% trypsin-EDTA, 3 ml for each mouse, at 37° C. for 20 min with shaking slightly every 5 min. […]
SA-β-gal staining of cultured astrocytes was performed as previously reported. […] The SA-β-gal intensity was quantified by the NIH ImageJ software.

[3] = system: PYD (pyridinoline); test: Serum PYD ELISA (bone resorption marker); format: in vivo, mouse; settings: 6-MO female 5×FAD mice, compared to WT controls; 50 μg/Kg s.c. intermittent
Protocol: as §1
Submandibular blood collection was performed in anesthetized mice. A swift lancing motion is used to puncture the vessel. Blood sample (up to 200 μl) was collected with a pipette or other collection tube, allowed to stand at room temperature for 30 min and centrifuged for 15 min at 3000 rpm. Supernatant serum was aliquot and frozen at −80° C. until use. Mouse serum levels of osteocalcin (a marker for bone formation), PYD (pyridinoline, a marker for bone resorption), and PTH were measured using mouse osteocalcin Elisa kit (QUIDEL Corporation), METRA Serum PYD EIA kit (QUIDEL Corporation, San Diego, CA, USA), and mouse PTH Elisa kit (MyBioSource), respectively, following the manufacturers' instruction.

[4] = system: primary cultured astrocytes from WT and 5×FAD pups; test: PTH1-34 induced signaling in primary cultured astrocytes (Western blot); format: cell-based, mouse; settings: 100 ng/ml PTH1-34, time course
Protocol: Total proteins from cortex, hippocampus, or cultured astrocytes were extracted using RIPA lysis buffer [50 mM Tris-HCl (pH7.5), 150 mM NaCl, 1 mM EDTA, 1% v/v NP-40, 0.1% SDS, 1% sodium deoxycholate supplemented with Protease Inhibitor Cocktail (Roche) and 1 mM PMSF] and analyzed by Western Blot. Lysates were cleared by centrifugation at 12,000 g for 15 min at 4° C. to remove debris and to obtain homogenates. Homogenates samples were resolved by SDS-PAGE (8˜15%) gels and then electroblotted onto nitrocellulose membranes (Cat #1620112, Bio-Rad Laboratories). Membranes were blocked with 5% BSA (w/v) in TBS-Tween (50 mM Tris, 150 mM NaCl, pH7.6 and 0.1% v/v Tween-20) for 1 h and then probed with indicated primary antibodies overnight in 4° C. Membranes were washed with TBST 4 times and incubated with HRP-conjugated secondary antibodies (1:5000 in TBST) at room temperature for 1 h. After washing with TBST 3 times, antibody reactivity was detected by the Enhanced Chemiluminescence (ECL) detection system (Amersham Biosciences). Band density of proteins was normalized in relation to loading control and analyzed using NIH ImageJ software. Primary anti-bodies used were as follows: IBA1 (ab178846, rabbit), p16 (ab51243, rabbit), p53 (ab131442, rabbit), and anti-beta Actin (ab8226, mouse) from Abcam (Cambridge, MA, USA); GFAP (12389, rabbit), p-CREB (Ser133) (9198S, rabbit), p-AKT(S473) (4060P, rabbit), AKT (9272S, rabbit) and GAPDH (97166S, mouse) from Cell Signaling (Danvers, MA, USA); PTH1R (PA5-77,689, rabbit) from Invitrogen (Carlsbad, CA, USA); p-ERK1/2 (sc-136521, mouse) and ERK1/2 (sc-514302, mouse) from Santa Cruz Biotechnology (Santa Cruz, CA, USA).
as §2, with “Solution).” for “Solution). The tissues were digested with 2.5% trypsin-EDTA, 3 ml for each mouse, at 37° C. for 20 min with shaking slightly every 5 min.”

CC[C@H](C)[C@H](NC(=O)[C@H](CCC(=O)O)NC(=O)[C@H](CO)NC(=O)[C@@H](NC(=O)[C@@H](N)CO)C(C)C)C(=O)N[C@@H](CCC(N)=O)C(=O)N[C@@H](CC(C)C)C(=O)N[C@@H](CCSC)C(=O)N[C@@H](Cc1cnc[nH]1)C(=O)N[C@@H](CC(N)=O)C(=O)N[C@@H](CC(C)C)C(=O)NCC(=O)N[C@@H](CCCCN)C(=O)N[C@@H](Cc1cnc[nH]1)C(=O)N[C@@H](CC(C)C)C(=O)N[C@@H](CC(N)=O)C(=O)N[C@@H](CO)C(=O)N[C@@H](CCSC)C(=O)N[C@@H](CCC(=O)O)C(=O)N[C@@H](CCCN=C(N)N)C(=O)N[C@H](C(=O)N[C@@H](CCC(=O)O)C(=O)N[C@@H](Cc1c[nH]c2ccccc12)C(=O)N[C@@H](CC(C)C)C(=O)N[C@@H](CCCN=C(N)N)C(=O)N[C@@H](CCCCN)C(=O)N[C@@H](CCCCN)C(=O)N[C@@H](CC(C)C)C(=O)N[C@@H](CCC(N)=O)C(=O)N[C@@H](CC(=O)O)C(=O)N[C@H](C(=O)N[C@@H](Cc1cnc[nH]1)C(=O)N[C@@H](CC(N)=O)C(=O)N[C@@H](Cc1ccccc1)C(=O)O)C(C)C)C(C)C [PTH1-34]
GFAP protein level (Western blot) [1]: lower | IBA1 protein level (Western blot) [1]: lower | SA-β-gal+ astrocytes [2]: attenuated | p53 expression (RT-PCR) [2]: diminished | serum PYD levels [3]: little to no effect on serum PYD levels in 5×FAD mice | p-AKT protein level [4]: little effect | p-CREB protein level [4]: increases p-CREB | p-ERK protein level [4]: little effect
